Measured values: ChEMBL document CHEMBL4043147, “9,19-Cycloartenol glycoside G3 from Cimicifuga simplex regulates immune responses by modulating Th17/Treg ratio” (Bioorg Med Chem, 2017)
The source made the active and inactive calls. The calls are words filed in the database; no cut-off is given here.

What was measured:
[1] = Inhibition of C57BL/6 mouse CD4-positive T cell differentiation at 50 uM relative to control; type: functional; conditions: C57BL/6, CD4-positive T cell
[2] = Inhibition of C57BL/6 mouse CD4-positive T cell differentiation at 25 uM relative to control; type: functional; conditions: C57BL/6, CD4-positive T cell
[3] = Inhibition of C57BL/6 mouse CD4-positive T cell differentiation at 12.5 uM relative to control; type: functional; conditions: C57BL/6, CD4-positive T cell
[4] = Inhibition of C57BL/6 mouse CD4-positive T cell differentiation at 6.25 uM relative to control; type: functional; conditions: C57BL/6, CD4-positive T cell
[5] = Inhibition of C57BL/6 mouse CD4-positive T cell differentiation; type: functional, cell-based; conditions: C57BL/6, CD4-positive T cell
Splenocyte = assay: Cytotoxicity against mouse splenocytes after 48 hrs by MTT assay; type: cell-based
CD4-positive T cell [6] = assay: Inhibition of C57BL/6 mouse CD4-positive T cell differentiation assessed as decrease in RORgammat mRNA level 0.1 to 10 uM by real-time PCR analysis; type: functional, cell-based
CD4-positive T cell [7] = assay: Inhibition of C57BL/6 mouse CD4-positive T cell differentiation assessed as decrease in T-bet mRNA level 0.1 to 10 uM by real-time PCR analysis; type: functional, cell-based
CD4-positive T cell [8] = assay: Inhibition of C57BL/6 mouse CD4-positive T cell differentiation assessed as decrease in GATA-3 mRNA level 0.1 to 10 uM by real-time PCR analysis; type: functional, cell-based
CD4-positive T cell [9] = assay: Inhibition of C57BL/6 mouse CD4-positive T cell differentiation assessed as decrease in FoxP3 mRNA level 0.1 to 10 uM by real-time PCR analysis; type: functional, cell-based
Th17 [10] = assay: Decrease in IL-17A mRNA level in C57BL/6 mouse Th17 cells 0.1 to 10 uM by real-time PCR analysis; type: functional, cell-based
Treg cell [11] = assay: Increase in IL-10 mRNA level in C57BL/6 mouse Treg cells by real-time PCR analysis; type: functional, cell-based
Th17 [12] = assay: Reduction in IL-17A production in C57BL/6 mouse Th17 cells at 10 uM by ELISA; type: functional, cell-based
Th1 = assay: Reduction in IFN-gamma production in C57BL/6 mouse Th1 cells at 10 uM by ELISA; type: functional, cell-based
Treg cell [13] = assay: Reduction in IL-10 production in C57BL/6 mouse Treg cells at 10 uM by ELISA; type: functional, cell-based
Treg cell [14] = assay: Increase in IL-10 production in C57BL/6 mouse Treg cells by ELISA; type: functional, cell-based
[15] = biological target: T1, Tyrosine-protein kinase JAK1/JAK2 (Mus musculus) (UniProt P52332+Q62120); assay: Inhibition of JAK1/JAK2 in C57BL/6 mouse CD4-positive T cell assessed as reduction in IFNgamma-induced STAT1 phosphorylation at 1 to 10 uM pretreated for 1 hr followed by IFNgamma addition after 15 mins by Western blot analysis
[16] = biological target: T1, Tyrosine-protein kinase JAK1/JAK2 (Mus musculus); assay: Inhibition of JAK1/JAK2 in C57BL/6 mouse CD4-positive T cell assessed as reduction in IFNgamma-induced STAT3 phosphorylation at 1 to 10 uM pretreated for 1 hr followed by IFNgamma addition after 15 mins by Western blot analysis
Mus musculus [17] = organism: Mus musculus; assay: Inhibition of […]/TYK2 in C57BL/6 mouse CD4-positive T cell assessed as reduction in IL-12-induced STAT1 phosphorylation at 1 to 10 uM pretreated for 1 hr followed by IL-12 addition after 30 mins by Western blot analysis
Mus musculus [18] = organism: Mus musculus; assay: Inhibition of […]/TYK2 in C57BL/6 mouse CD4-positive T cell assessed as reduction in IL-12-induced STAT4 phosphorylation at 1 to 10 uM pretreated for 1 hr followed by IL-12 addition after 30 mins by Western blot analysis
[19] = biological target: Tyrosine-protein kinase JAK1/JAK3 (Mus musculus) (UniProt P52332+Q62137); assay: Inhibition of JAK1/JAK3 in C57BL/6 mouse CD4-positive T cell assessed as reduction in IL-4-induced STAT6 phosphorylation at 1 to 10 uM pretreated for 1 hr followed by IL-4 addition after 15 mins by Western blot analysis
Mus musculus [20] = assay: (§1) Anti-inflammatory activity in IL-23 induced mouse psoriasis-like skin inflammation model assessed as reduction in epidermal hyperplasia by measuring acanthosis at 2 to 10 uM applied topically starting 1 day prior to IL-23 induction and continuing every other day for 14 days measured after 24 hrs post last dose by hematoxylin and eosin staining based assay; type: functional
Mus musculus [21] = assay: as §1, with “dermal inflammatory infiltrates” for “epidermal hyperplasia by measuring acanthosis”; type: functional
Mus musculus [22] = assay: as §1, with “IFN-gamma mRNA levels” for “epidermal hyperplasia by measuring acanthosis”, “real-time PCR analysis” for “hematoxylin and eosin staining based assay”; type: functional
Mus musculus [23] = assay: as §1, with “IL-17A mRNA levels” for “epidermal hyperplasia by measuring acanthosis”, “real-time PCR analysis” for “hematoxylin and eosin staining based assay”; type: functional
Mus musculus [24] = assay: as §1, with “IL-22 mRNA levels” for “epidermal hyperplasia by measuring acanthosis”, “real-time PCR analysis” for “hematoxylin and eosin staining based assay”; type: functional
Mus musculus [25] = assay: as §1, with “IL-4 mRNA levels” for “epidermal hyperplasia by measuring acanthosis”, “real-time PCR analysis” for “hematoxylin and eosin staining based assay”; type: functional
Mus musculus [26] = assay: as §1, with “CXCL1 mRNA levels” for “epidermal hyperplasia by measuring acanthosis”, “real-time PCR analysis” for “hematoxylin and eosin staining based assay”; type: functional
Mus musculus [27] = assay: as §1, with “CCL17 mRNA levels” for “epidermal hyperplasia by measuring acanthosis”, “real-time PCR analysis” for “hematoxylin and eosin staining based assay”; type: functional
Mus musculus [28] = assay: as §1, with “CCL20 mRNA levels” for “epidermal hyperplasia by measuring acanthosis”, “real-time PCR analysis” for “hematoxylin and eosin staining based assay”; type: functional
Mus musculus [29] = assay: as §1, with “CCL27 mRNA levels” for “epidermal hyperplasia by measuring acanthosis”, “real-time PCR analysis” for “hematoxylin and eosin staining based assay”; type: functional
Mus musculus [30] = assay: as §1, with “CCR6 mRNA levels” for “epidermal hyperplasia by measuring acanthosis”, “real-time PCR analysis” for “hematoxylin and eosin staining based assay”; type: functional
Mus musculus [31] = assay: as §1, with “IL-1alpha mRNA levels” for “epidermal hyperplasia by measuring acanthosis”, “real-time PCR analysis” for “hematoxylin and eosin staining based assay”; type: functional
Mus musculus [32] = assay: as §1, with “IL-1beta mRNA levels” for “epidermal hyperplasia by measuring acanthosis”, “real-time PCR analysis” for “hematoxylin and eosin staining based assay”; type: functional
Mus musculus [33] = assay: as §1, with “IL-6 mRNA levels” for “epidermal hyperplasia by measuring acanthosis”, “real-time PCR analysis” for “hematoxylin and eosin staining based assay”; type: functional
Mus musculus [34] = assay: as §1, with “TNF-alpha mRNA levels” for “epidermal hyperplasia by measuring acanthosis”, “real-time PCR analysis” for “hematoxylin and eosin staining based assay”; type: functional
Mus musculus [35] = assay: as §1, with “COX2 mRNA levels” for “epidermal hyperplasia by measuring acanthosis”, “real-time PCR analysis” for “hematoxylin and eosin staining based assay”; type: functional
Mus musculus [36] = assay: as §1, with “IL-10 mRNA levels” for “epidermal hyperplasia by measuring acanthosis”, “real-time PCR analysis” for “hematoxylin and eosin staining based assay”; type: functional
CD4-positive T cell [37] = assay: Reduction in RORgammat/IL-17 expression in human PBMC derived allogeneic CD4-positive T cells co-cultured with […] CD14 positive monocyte derived dendritic cells at 10 uM by flow cytometric analysis; type: functional, cell-based
CD4-positive T cell [38] = assay: Reduction in FoxP3/IL-10 expression in human PBMC derived allogeneic CD4-positive T cells co-cultured with […] CD14 positive monocyte derived dendritic cells at 10 uM by flow cytometric analysis; type: functional, cell-based
CD4-positive T cell [39] = assay: Reduction in ratio of RORgammat/IL-17 expression to FoxP3/IL-10 expression in human PBMC derived allogeneic CD4-positive T cells co-cultured with […] CD14 positive monocyte derived dendritic cells at 10 uM by flow cytometric analysis; type: functional, cell-based

T1 sequence (P52332 whole entry, looked up): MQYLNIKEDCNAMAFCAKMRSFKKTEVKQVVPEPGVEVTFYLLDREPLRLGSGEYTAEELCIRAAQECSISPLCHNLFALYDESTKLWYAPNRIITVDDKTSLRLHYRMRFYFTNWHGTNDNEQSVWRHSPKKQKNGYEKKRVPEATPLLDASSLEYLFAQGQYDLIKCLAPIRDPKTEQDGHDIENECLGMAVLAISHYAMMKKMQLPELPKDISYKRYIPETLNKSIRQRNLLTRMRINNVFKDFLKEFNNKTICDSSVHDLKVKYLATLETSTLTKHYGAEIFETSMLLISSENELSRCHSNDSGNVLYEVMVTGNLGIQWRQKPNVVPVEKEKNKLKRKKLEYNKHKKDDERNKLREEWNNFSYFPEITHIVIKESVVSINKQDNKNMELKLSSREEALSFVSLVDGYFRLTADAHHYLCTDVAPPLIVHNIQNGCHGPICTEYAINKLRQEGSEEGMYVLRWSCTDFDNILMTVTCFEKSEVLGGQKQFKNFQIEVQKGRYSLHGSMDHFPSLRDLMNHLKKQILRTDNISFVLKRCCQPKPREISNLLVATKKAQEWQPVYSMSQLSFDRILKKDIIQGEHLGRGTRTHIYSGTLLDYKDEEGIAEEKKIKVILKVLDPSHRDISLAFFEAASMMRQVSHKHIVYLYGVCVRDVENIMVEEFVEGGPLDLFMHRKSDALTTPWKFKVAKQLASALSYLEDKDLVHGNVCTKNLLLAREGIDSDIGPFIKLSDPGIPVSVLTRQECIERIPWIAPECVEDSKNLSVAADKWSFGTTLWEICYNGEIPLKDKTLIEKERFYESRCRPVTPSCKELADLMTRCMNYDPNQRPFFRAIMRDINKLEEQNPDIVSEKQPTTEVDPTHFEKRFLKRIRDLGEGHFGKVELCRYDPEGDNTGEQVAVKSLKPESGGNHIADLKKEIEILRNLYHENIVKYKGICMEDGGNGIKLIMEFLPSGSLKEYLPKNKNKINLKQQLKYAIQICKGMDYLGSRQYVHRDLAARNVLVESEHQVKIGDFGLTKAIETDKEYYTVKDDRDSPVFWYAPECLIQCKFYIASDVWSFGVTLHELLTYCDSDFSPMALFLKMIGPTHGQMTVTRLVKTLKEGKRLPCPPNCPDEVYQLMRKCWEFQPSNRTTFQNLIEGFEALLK
T1 sequence (Q62120 whole entry, looked up): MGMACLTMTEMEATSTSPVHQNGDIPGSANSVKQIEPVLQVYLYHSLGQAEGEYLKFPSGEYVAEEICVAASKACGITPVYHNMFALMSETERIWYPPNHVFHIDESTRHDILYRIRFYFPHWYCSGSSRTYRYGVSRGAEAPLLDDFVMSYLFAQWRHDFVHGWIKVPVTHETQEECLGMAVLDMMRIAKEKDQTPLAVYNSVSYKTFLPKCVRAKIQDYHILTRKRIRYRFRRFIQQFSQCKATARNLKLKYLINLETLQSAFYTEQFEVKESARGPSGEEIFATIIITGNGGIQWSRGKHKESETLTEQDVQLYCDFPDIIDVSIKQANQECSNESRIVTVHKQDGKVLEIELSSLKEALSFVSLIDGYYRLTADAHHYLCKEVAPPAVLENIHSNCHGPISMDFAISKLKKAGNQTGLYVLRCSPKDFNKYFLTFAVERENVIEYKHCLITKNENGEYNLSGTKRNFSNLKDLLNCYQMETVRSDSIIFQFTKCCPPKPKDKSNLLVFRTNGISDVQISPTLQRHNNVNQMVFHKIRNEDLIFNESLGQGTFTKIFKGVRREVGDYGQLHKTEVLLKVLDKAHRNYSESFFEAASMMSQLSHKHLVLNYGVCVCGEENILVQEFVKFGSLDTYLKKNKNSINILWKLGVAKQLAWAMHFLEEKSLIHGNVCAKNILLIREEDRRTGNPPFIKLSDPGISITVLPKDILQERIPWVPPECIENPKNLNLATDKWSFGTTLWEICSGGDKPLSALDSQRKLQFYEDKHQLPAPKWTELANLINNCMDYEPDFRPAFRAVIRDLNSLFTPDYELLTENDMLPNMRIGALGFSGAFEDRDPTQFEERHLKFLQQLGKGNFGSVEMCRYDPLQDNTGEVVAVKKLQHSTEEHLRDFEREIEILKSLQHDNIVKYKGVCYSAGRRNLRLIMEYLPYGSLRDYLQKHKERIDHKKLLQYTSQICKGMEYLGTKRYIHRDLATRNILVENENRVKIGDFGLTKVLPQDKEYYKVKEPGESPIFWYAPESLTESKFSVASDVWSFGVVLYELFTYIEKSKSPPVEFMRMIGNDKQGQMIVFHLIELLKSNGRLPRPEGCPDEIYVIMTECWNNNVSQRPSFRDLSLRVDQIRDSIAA
Chain of Tyrosine-protein kinase JAK1/JAK3 (Mus musculus) (P52332 whole entry, looked up): as the sequence (P52332 whole entry, looked up) above
Chain of Tyrosine-protein kinase JAK1/JAK3 (Mus musculus) (Q62137 whole entry, looked up): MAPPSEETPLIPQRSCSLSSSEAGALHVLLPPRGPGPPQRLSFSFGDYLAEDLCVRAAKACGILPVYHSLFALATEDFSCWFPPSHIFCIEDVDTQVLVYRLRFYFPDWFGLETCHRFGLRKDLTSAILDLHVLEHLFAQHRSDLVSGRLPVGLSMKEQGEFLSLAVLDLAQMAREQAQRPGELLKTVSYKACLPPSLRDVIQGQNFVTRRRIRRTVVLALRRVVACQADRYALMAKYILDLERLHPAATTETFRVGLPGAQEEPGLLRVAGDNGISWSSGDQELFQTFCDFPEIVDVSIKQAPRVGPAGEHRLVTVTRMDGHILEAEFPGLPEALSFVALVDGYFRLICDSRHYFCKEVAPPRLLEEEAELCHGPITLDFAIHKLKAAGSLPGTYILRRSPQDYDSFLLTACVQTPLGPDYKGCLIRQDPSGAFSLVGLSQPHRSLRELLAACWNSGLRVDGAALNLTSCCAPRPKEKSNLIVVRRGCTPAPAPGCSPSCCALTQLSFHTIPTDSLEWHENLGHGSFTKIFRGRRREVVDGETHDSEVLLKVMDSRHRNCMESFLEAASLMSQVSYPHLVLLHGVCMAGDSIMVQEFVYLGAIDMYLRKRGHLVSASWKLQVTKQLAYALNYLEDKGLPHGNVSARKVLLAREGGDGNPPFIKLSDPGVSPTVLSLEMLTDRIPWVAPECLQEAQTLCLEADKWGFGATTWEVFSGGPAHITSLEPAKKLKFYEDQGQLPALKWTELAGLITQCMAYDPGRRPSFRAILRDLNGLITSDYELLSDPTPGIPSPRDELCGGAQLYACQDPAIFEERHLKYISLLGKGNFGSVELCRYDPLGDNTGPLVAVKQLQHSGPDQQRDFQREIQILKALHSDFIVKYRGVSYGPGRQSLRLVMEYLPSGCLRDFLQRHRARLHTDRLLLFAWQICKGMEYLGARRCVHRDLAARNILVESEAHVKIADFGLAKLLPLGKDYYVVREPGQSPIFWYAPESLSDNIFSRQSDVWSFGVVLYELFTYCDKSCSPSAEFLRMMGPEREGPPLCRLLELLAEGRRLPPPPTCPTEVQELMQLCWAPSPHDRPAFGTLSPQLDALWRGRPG

CC(=O)O[C@@H]1C[C@@]23C[C@@]24CC[C@H](O[C@@H]2O[C@H](CO)[C@H](O)[C@H](O)[C@H]2O)C(C)(C)[C@@H]4CC=C3[C@]2(C)C[C@@]3(O)O[C@H](C(=O)[C@H]4OC4(C)C)[C@@H](C)[C@@H]3[C@@]12C
inhibition at 50 µM [1]: 98.6% | inhibition at 25 µM [2]: 68.3% | inhibition at 12.5 µM [3]: 52.4% | inhibition at 6.25 µM [4]: 8.9% | IC50 [5]: 14.3 µM

CC(=O)O[C@H]([C@H]1C[C@@H](C)C2=C(O1)[C@@H](O)[C@@]1(C)[C@@H]3CC[C@H]4C(C)(C)[C@@H](O[C@@H]5O[C@H](CO)[C@H](O)[C@H](O)[C@H]5O)CC[C@@]45C[C@@]35CC[C@]21C)C(C)(C)O
inhibition at 50 µM [1]: 96.8% | inhibition at 25 µM [2]: 68.3% | inhibition at 12.5 µM [3]: 21.3% | inhibition at 6.25 µM [4]: 10.2% | IC50 [5]: 14.6 µM

CC(=O)O[C@@H]1C[C@@]23C[C@@]24CC[C@H](O[C@@H]2O[C@H](CO)[C@H](O)[C@H](O)[C@H]2O)C(C)(C)[C@@H]4CC[C@H]3[C@]2(C)C[C@]3(O)O[C@H](C(=O)[C@@H]4OC4(C)C)[C@@H](C)[C@@H]3[C@@]12C
CC50 (Splenocyte): 88.8 µM | inhibition at 50 µM [1]: 98.3% | inhibition at 25 µM [2]: 93.6% | inhibition at 12.5 µM [3]: 59.6% | inhibition at 6.25 µM [4]: 29.6% | IC50 [5]: 8.69 µM | inhibition (CD4-positive T cell [6]): Active | inhibition (CD4-positive T cell [7]): Active | inhibition (CD4-positive T cell [8]): Active | inhibition (CD4-positive T cell [9]): inactive | Activity (Th17 [10]): Active | Activity (Treg cell [11]): Dose-dependent effect | Activity (Th17 [12]): Active | Activity (Th1): Active | Activity (Treg cell [13]): Active | Activity (Treg cell [14]): Dose-dependent effect | inhibition [15]: Active | inhibition [16]: Active | inhibition (Mus musculus [17]): Active | inhibition (Mus musculus [18]): Active | inhibition [19]: Active | Activity (Mus musculus [20]): Active | Activity (Mus musculus [21]): Active | Activity (Mus musculus [22]): Active | Activity (Mus musculus [23]): Active | Activity (Mus musculus [24]): Active | Activity (Mus musculus [25]): Active | Activity (Mus musculus [26]): Active | Activity (Mus musculus [27]): Active | Activity (Mus musculus [28]): Active | Activity (Mus musculus [29]): Active | Activity (Mus musculus [30]): Active | Activity (Mus musculus [31]): Active | Activity (Mus musculus [32]): Active | Activity (Mus musculus [33]): Active | Activity (Mus musculus [34]): Active | Activity (Mus musculus [35]): Active | Activity (Mus musculus [36]): inactive | Activity (CD4-positive T cell [37]): Active | Activity (CD4-positive T cell [38]): Active | Activity (CD4-positive T cell [39]): Active

CC(=O)O[C@@H]1C[C@@]23C[C@@]24CC[C@H](O[C@@H]2OC[C@@H](O)[C@H](O)[C@H]2O)C(C)(C)[C@@H]4CC=C3[C@]2(C)C[C@]3(O)O[C@H](C(=O)[C@@H]4OC4(C)C)[C@@H](C)[C@@H]3[C@@]12C
inhibition at 50 µM [1]: 99.1% | inhibition at 25 µM [2]: 82.6% | inhibition at 12.5 µM [3]: 24.6% | inhibition at 6.25 µM [4]: 5.3% | IC50 [5]: 17.6 µM

CC(=O)O[C@H]([C@H]1C[C@@H](C)C2=C(O1)[C@@H](O)[C@@]1(C)C3=CC[C@H]4C(C)(C)[C@@H](O[C@@H]5O[C@H](CO)[C@H](O)[C@H](O)[C@H]5O)CC[C@@]45C[C@@]35CC[C@]21C)C(C)(C)O
inhibition at 50 µM [1]: 96.6% | inhibition at 25 µM [2]: 92.1% | inhibition at 12.5 µM [3]: 54.3% | inhibition at 6.25 µM [4]: 21.6% | IC50 [5]: 12.6 µM

C[C@@H]1C[C@H]([C@@H](O)C(C)(C)O)O[C@]2(O)[C@@H](O)[C@@]3(C)C4=CC[C@H]5C(C)(C)[C@@H](O[C@@H]6O[C@H](CO)[C@H](O)[C@H](O)[C@H]6O)CC[C@@]56C[C@@]46CC[C@]3(C)[C@@H]12
inhibition at 50 µM [1]: 99.6% | inhibition at 25 µM [2]: 74.1% | inhibition at 12.5 µM [3]: 51.5% | inhibition at 6.25 µM [4]: 10.3% | IC50 [5]: 18.3 µM
